The record followed here is US6284910A, “Farnesyl pyrophosphate analogs” (University of Kentucky Research Foundation, priority 1999, dated 2001).

One test relates to GGTase I. Briefly: Transfer of [^3 H]AGPP by GGTase I to H-Ras-CVLL. Type of test: biochemical.
The next test has as its target T1, squalene synthase (Bos taurus, UniProt Q32KR6).
T1 construct: squalene synthase activity present in bovine brain microsome fractions; from tissue; host or cells: bovine brain microsomes (crude)
T1 sequence (Q32KR6 1-417): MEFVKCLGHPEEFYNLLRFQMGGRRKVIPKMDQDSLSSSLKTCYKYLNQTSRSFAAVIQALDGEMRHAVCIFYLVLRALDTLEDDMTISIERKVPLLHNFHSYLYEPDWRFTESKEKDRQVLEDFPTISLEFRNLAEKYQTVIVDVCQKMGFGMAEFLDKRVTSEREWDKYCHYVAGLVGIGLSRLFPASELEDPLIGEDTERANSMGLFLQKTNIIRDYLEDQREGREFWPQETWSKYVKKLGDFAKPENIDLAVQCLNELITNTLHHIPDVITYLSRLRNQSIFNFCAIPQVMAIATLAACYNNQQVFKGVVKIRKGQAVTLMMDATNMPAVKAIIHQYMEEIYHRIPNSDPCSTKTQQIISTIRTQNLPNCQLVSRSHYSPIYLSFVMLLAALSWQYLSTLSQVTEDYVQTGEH
Briefly: Conversion of [^3 H]AGPP to organic soluble products by squalene synthase. Format: biochemical, bovine. To be noted: in vitro; listed as [^3 H]AGPP. On the procedure: Assay for Squalene Synthase Activity--Initial rates of squalene synthase activity present in bovine brain microsome fractions were assayed as previously described (19) with minor modifications. […] […] Assay mixtures were incubated for 30 min at 37° C., and the reactions terminated by the addition of 50 μl of 40% (wt/vol) KOH and then 100 μl of 95% ethanol. The resulting mixtures were incubated at 60° C. for 2 h and then cooled to room temperature. Authentic carrier squalene (20 μg) was added to each reaction tube, which were then extracted three times with petroleum ether. The lipid extracts were pooled, washed with water three times, and evaporated under a stream of N2. The lipid residue was redissolved in 100 μl CHCl3 /CH3 OH (2:1 vol/vol) and an aliquot (30 μl) was taken to determine the amount of labeled lipid formed by scintillation spectrometry. The remaining sample was analyzed on Silica gel G 60 TLC plates by developing with hexane (33). In all analyses the squalene standard was located by anisaldehyde spray reagent (34), and radioactive zones were located with a Bioscan Imaging System 200-IBM.
Some of the previously characterized FTase inhibitors, particularly those competitive for FPP binding, have been described as inhibitors of squalene synthase, an enzyme that utilizes FPP and is an important secondary regulatory protein in the cholesterol biosynthetic pathway (38).

A further test deals with FTase (Rattus norvegicus, UniProt Q02293+Q04631). Briefly: FTase-catalyzed transfer of labeled FPP analogs to p21^H-ras (substrate assay). Type of test: biochemical. The arrangement: H-Ras is only the protein substrate. Conditions: for transfer to p21^H-ras by FTase, in words: in vitro. On the procedure:
FIG. 4. Transfer of Anilinogeranyl from [^3 H]AGPP to p21^Ha-ras by Farnesyltransferase. (A) Each reaction contained 1 μM [^3 H]AGPP (37,400 dpm/pmol) and 10 ng of recombinant FTase in the absence (triangles) or presence (circles) of 5 μM p21^Ha-ras Duplicate samples were incubated for the indicated times at 37° C., and ethanol-HCl precipitated radioactivity was measures as described under "Experimental Procedures". […] The gel was treated with Amplify solution (Amersham), dried, and exposed to Kodak X-OMAT AR film for 2 days at -70° C. The migration of molecular weight markers placed in a adjacent lane is shown. (B) The AGPP substrate saturation curve for FTase was determined by varying the amount of [^3 H]AGPP in the standard reaction described above. Assays were carried out in duplicate for 30 min at 37° C., and the ethanol-HCl precipitable radioactivity measured. The data is representative of three independent experiments.
FIG. 5. […] Farnesyltransferase (10 ng) was incubated in a final volume of 25 μl in the presence of 1.0 μM [^3 H]AGPP or [^3 H]FPP and 5 μM wild-type p21^Ha-ras. After incubation for 30 min at 37° C., the amount of [^3 H]prenyl transferred to p21^Ha-ras was determined as described under "Experimental Procedures". Each value is the average of duplicate incubations and is representative of five separate experiments.
Assay for Farnesyltransferase Activity--Farnesyltransferase activity was assayed by measuring the amount of [^3 H]farnesyl or [^3 H]anilinogeranyl transferred from [^3 H]FPP or [^3 H]AGPP to recombinant p21^H-ras, as described previously (31). Unless otherwise stated, each reaction mixture contained the following components in a final volume of 25 μl: 50 mM Tris (pH 7.4), 20 mM KCl, 0.2% octyl β-glucopyranoside, 1 mM dithiothreitol, 10-20 ng recombinant FTase, 5 μM p21^Ha-ras, 3 mM MgCl2, 50 μM ZnCl2, and 0.6 μM [^3 H]FPP (33,000 dpm/pmol; American Radiochemical Co.) or 0.1-5 μM [^3 H]AGPP (37,400 dpm/pmol). Following incubation for the indicated times at 37° C., the amount of [^3 H]prenyl transferred was measured by ethanol-HCl precipitation and filtration on glass fiber filters with modification as previously described (19). A blank value was determined in parallel incubation mixtures containing no enzyme. This blank value was subtracted from each reaction before calculating pmol [^3 H]prenyl transferred.
The observed inhibition kinetics could be a manifestation of the ability of AGPP to act as an alternative substrate for FTase. To evaluate the potential of AGPP to serve as a substrate of FTase, [^3 H]-AGPP was prepared by a similar route as described above, incorporating tritium with a specific activity of 17 Ci/mmol (synthesis to be reported elsewhere). […] The incorporated radioactivity was detected as a band of the expected molecular weight of farnesylated p21^H-ras on SDS-polyacrylamide gels (FIG. 4A, inset). […] The concentration of [^3 H]AGPP that gave half-maximal reaction velocity was approximately 0.5 μM (FIG. 4B).
FIG. 5 depicts transfer of unnatural anilinogeranyl lipid from [^3 H]AGPP and transfer of farnesyl lipid from [^3 H]FPP to H-Ras by FTase. Farnesyltransferase (10 ng) was incubated in a final volume of 25 μl in the presence of 1.0 μM [^3 H]AGPP or [^3 H]FPP and 5 μM wild-type H-Ras. After incubation for 30 min. at 37° C., the amount of [^3 H]prenyl transferred to H-Ras was determined by ethanol-HCl precipitation and scintillation counting. Each value is the average of duplicate incubations and is representative of five separate experiments.

Each structure is given as a SMILES string. “Also recorded” adds a separate entry of the source.

Turning to `C/C(=C\COP(=O)(O)OP(=O)(O)O)CC/C=C(\C)CNc1ccccc1` [AGPP, (E,E)-8-Aniline-3,7-dimethyl-2,6-octadiene pyrophosphate], the “transfer by GGTase I, in words” value in the test with GGTase I is “transferred by GGTase I to H-Ras-CVLL with a low efficiency”. At squalene synthase, the “conversion to organic soluble products” value is reported as “showed no activity; also recorded: failed to detect any conversion”. Besides, the “transfer to p21^H-ras by FTase, in words” value is “transferred efficiently” on FTase (37° C.); “kinetics of transfer are identical to those of FPP” on FTase (37° C., listed as [^3 H]-AGPP); “time dependent fashion; also recorded: transferred appropriately to p21^H-Ras by FTase” at FTase (37° C., listed as [^3 H]AGPP). For the same molecule, the “transfer to p21^H-ras lacking the CVLS motif” value on FTase (recombinant p21^H-ras with CVLS removed) is listed as “eliminated the incorporation of tritium into the protein”. Besides, on FTase (transfer to p21^H-ras, 37° C., 30 min), the “concentration that gave half-maximal reaction velocity” value was “approximately 0.5 μM”.
